We go through 53 compounds from PubChem BioAssay AID504367 (Southern Research Specialized Biocontainment Screening …, 2011).

The source made the active and inactive calls.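 How the source made its calls: active means fusion inhibition of 50% or more at any tested concentration; inactive means the rest.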

For the test, the system named is HeLa-CD4-LTR-beta-gal/HL2/3 cell fusion, beta-gal luminescence. In words: CXCR4-tropic HIV-1 entry blockers, cell-cell fusion – HeLa-CD4-LTR-beta-gal/HL2/3 cells, beta-gal luminescence, dose response (AID 504367).
For the compound `O=C(O)CCCN1C(=O)/C(=C/c2ccc(-c3cccc(C(F)(F)F)c3)o2)SC1=S`, the IC50 is > 100 µM (inactive).
Under `CC1=C(C(=O)OC(C)C)C(c2ccc(Cl)cc2)n2c(s/c(=C\c3ccc(OCC(=O)O)cc3)c2=O)=N1` (stereo not drawn) stands 48.4 µM.
With `O=C(O)CCCN1C(=O)/C(=C/c2cc3ccccc3o2)SC1=S` the figure was > 100 µM (inactive); with `CCOC(=O)C1=C(C)N=c2sc(=Cc3ccc(OCC(=O)O)cc3)c(=O)n2C1c1cc(OC)c(OC)c(OC)c1` (stereo not drawn), > 100 µM (inactive).
`Cc1c2c(=O)n(-c3nc4ccccc4s3)nc-2cc(O)n1CCc1ccc(O)cc1`: the IC50 is 43.6 µM.
For the compound `Cc1c2c(=O)n(-c3nc4ccccc4s3)nc-2cc(O)n1CCC(C)C`, the 50% inhibitory concentration (IC50) was 40 µM.
Regarding `CCOC(=O)C1=C(C)N=c2sc(=Cc3ccc(OCC(=O)O)cc3)c(=O)n2C1c1ccccc1OC` (stereo not drawn), the IC50 is > 100 µM (inactive).
Under `CS(=O)(=O)C1=NSC2=NC(=O)/C(=C\c3cccn3-c3ccc(Cl)c(Cl)c3)C(=N)N21` stands 44.5 µM.
For the compound `O=C(O)CCCN1C(=O)/C(=C\c2ccc(-c3ccc(Cl)cc3)o2)SC1=S`, the IC50 was 25.2 µM.
Under `O=C(O)CCCN1C(=O)/C(=C\c2ccc(-c3ccc(Br)cc3)o2)SC1=S` stands 0.47 µM; under `Cc1c2c(=O)n(-c3nc4ccccc4s3)nc-2cc(O)n1Cc1ccc(F)cc1`, 55.3 µM.
With `COc1ccc(-c2ccc(/C=C3\SC(=S)N(CCCC(=O)O)C3=O)o2)cc1` the figure was 1.66 µM; with `O=C(O)c1ccc(C[n+]2c(-c3ccc([N+](=O)[O-])cc3)csc2Nc2ccccc2)cc1`, > 100 µM (inactive); with `Cc1ccc(-n2cccc2/C=C2/C(=N)N3C(=NC2=O)SN=C3S(C)(=O)=O)cc1`, 39.9 µM.
As to `CS(=O)(=O)C1=NSC2=NC(=O)/C(=C\c3cccn3-c3cccc(C(F)(F)F)c3)C(=N)N21`, the IC50 was > 100 µM (inactive).
Under `COc1ccccc1NS(=O)(=O)c1ccc2c(c1)C1C=CCC1C(c1ccc(C(=O)O)cc1)N2` (stereo not drawn) stands 18.4 µM; under `CCc1ccc(-c2ccc(/C=C3\SC(=S)N(CCCC(=O)O)C3=O)o2)cc1`, 2.47 µM; under `O=C(O)CCC(C(=O)O)N1C(=O)/C(=C\c2ccco2)SC1=S` (stereo not drawn), > 100 µM (inactive).
Under `O=C(O)CCCN1C(=O)/C(=C\c2ccc(-c3ccc(F)cc3)o2)SC1=S` stands 3.86 µM; under `O=C(O)CCCN1C(=O)/C(=C\c2ccc(-c3cccc(Cl)c3)o2)SC1=S`, 31.8 µM; under `COc1cccc(-n2cccc2/C=C2/C(=N)N3C(=NC2=O)SN=C3S(C)(=O)=O)c1`, > 100 µM (inactive).
With `Cc1c2c(=O)n(-c3nc4ccccc4s3)nc-2cc(O)n1C1CC1` the figure was 60.4 µM; with `O=C(O)c1ccc(C[n+]2c(-c3ccccc3)csc2Nc2ccccc2)cc1`, > 100 µM (inactive); with `O=C(O)CCCN1C(=O)/C(=C/c2ccc(-c3ccc(Cl)c(Cl)c3)o2)SC1=S`, 2.1 µM.
`COc1cccc(C2C(C(=O)Nc3ccccc3)=C(C)N=c3sc(=Cc4ccc(OCC(=O)O)cc4)c(=O)n32)c1` (stereo not drawn): the IC50 is > 100 µM (inactive).
Take `Cc1ccc(-c2ccc(/C=C3\SC(=S)N(CCCC(=O)O)C3=O)o2)cc1`: the IC50 was 4.6 µM.
As for `Cc1c2c(=O)n(-c3nc4ccccc4s3)nc-2cc(O)n1Cc1cccnc1`, the IC50 was > 100 µM (inactive).
Under `O=C(O)c1ccc([C@@H]2Nc3ccc(S(=O)(=O)Nc4cccc5ccccc45)cc3[C@@H]3C=CC[C@@H]32)cc1` stands 39.4 µM; under `CS(=O)(=O)C1=NSC2=NC(=O)/C(=C\c3cccn3-c3cccc(F)c3)C(=N)N21`, 62.7 µM.
With `CS(=O)(=O)C1=NSC2=NC(=O)/C(=C\c3cccn3-c3cccc(Cl)c3)C(=N)N21` the figure was 32.1 µM; with `COc1ccc(-n2cccc2/C=C2/C(=N)N3C(=NC2=O)SN=C3S(C)(=O)=O)cc1Cl`, > 100 µM (inactive); with `CCOC(=O)C1=C(C)N=c2sc(=Cc3ccc(OCC(=O)O)cc3)c(=O)n2C1c1ccccc1` (stereo not drawn), > 100 µM (inactive).
Under `CCOC(=O)C1=C(C)N=c2sc(=Cc3ccc(OCC(=O)O)cc3)c(=O)n2C1c1ccc(F)cc1` (stereo not drawn) stands 77.1 µM; under `Cc1ccc(-n2cccc2/C=C2/C(=N)N3C(=NC2=O)SN=C3S(C)(=O)=O)cc1C`, 21.4 µM; under `COc1ccc(CCn2c(O)cc3nn(-c4nc5ccccc5s4)c(=O)c-3c2C)cc1`, 35.9 µM.
For the compound `CCc1ccc(-n2cccc2/C=C2/C(=N)N3C(=NC2=O)SN=C3S(C)(=O)=O)cc1`, the IC50 was 46 µM.
For `CCOC(=O)C1=C(C)N=c2sc(=Cc3ccc(OCC(=O)O)cc3)c(=O)n2C1c1ccc(OC)cc1OC` (stereo not drawn), the IC50 is > 100 µM (inactive).
Under `CS(=O)(=O)C1=NSC2=NC(=O)/C(=C\c3cccn3-c3ccc(F)cc3)C(=N)N21` stands 58.1 µM; under `CS(=O)(=O)C1=NSC2=NC(=O)/C(=C\c3cccn3-c3ccc(Br)cc3)C(=N)N21`, 25.2 µM.
Under `COc1ccc(Cn2c(O)cc3nn(-c4nc5ccccc5s4)c(=O)c-3c2C)cc1` stands 49.2 µM; under `CCOC(=O)C1=C(C)N=c2s/c(=C\c3ccc(OCC(=O)O)cc3)c(=O)n2C1c1ccc(Cl)cc1` (stereo not drawn), 50 µM.
Consider `CCOc1ccc(-n2cccc2/C=C2/C(=N)N3C(=NC2=O)SN=C3S(C)(=O)=O)cc1`, for which the IC50 is 99.9 µM.
Under `Cc1c2c(=O)n(-c3nc4ccccc4s3)nc-2cc(O)n1CCc1cccs1` stands > 100 µM (inactive); under `Cc1c2c(=O)n(-c3nc4ccccc4s3)nc-2cc(O)n1Cc1ccncc1`, > 100 µM (inactive).
Under `CCOC(=O)C1=C(c2ccccc2)N=c2s/c(=C\c3ccc(OCC(=O)O)cc3)c(=O)n2C1c1cccc(OC)c1` (stereo not drawn) stands 23.3 µM.
Take `CCOC(=O)C1=C(C)N=c2s/c(=C\c3ccc(OCC(=O)O)cc3)c(=O)n2C1c1ccc(OC)c(OCC)c1` (stereo not drawn): the IC50 is 27.7 µM.
Under `COc1ccccc1Cn1c(O)cc2nn(-c3nc4ccccc4s3)c(=O)c-2c1C` stands 42.2 µM; under `CS(=O)(=O)C1=NSC2=NC(=O)/C(=C\c3cccn3-c3cc(Cl)cc(Cl)c3)C(=N)N21`, > 100 µM (inactive); under `Cc1c2c(=O)n(-c3nc4ccccc4s3)nc-2cc(O)n1Cc1cccs1`, 50.1 µM.
Under `Nc1sc2ccccc2[n+]1Cc1ccc(C(=O)O)cc1` stands > 100 µM (inactive); under `Cc1c2c(=O)n(-c3nc4ccccc4s3)nc-2cc(O)n1Cc1ccccc1Cl`, 29.5 µM; under `O=C(O)c1ccc(C2Nc3ccc(S(=O)(=O)Nc4cc(Cl)ccc4Cl)cc3C3C=CCC32)cc1` (stereo not drawn), 36.8 µM.
With `CS(=O)(=O)C1=NSC2=NC(=O)/C(=C\c3cccn3-c3ccc(Cl)cc3)C(=N)N21` the figure was 67.7 µM.

The IC50 is the concentration needed to halve the response being measured.
